Results as given in ChEMBL document CHEMBL1140928, “Glycolipids and benzylammonium lipids as novel antisepsis agents: synthesis and biological characterization” (J Med Chem, 2009).
Calls of active or inactive are those of the source. No cut-off for these calls is given here.

What was measured:
[1] = Inhibition of lipid A-mediated TLR4 activation in HEK-Blue-4 cells assessed as inhibition of alkaline phosphatase activity by spectrophotometry; type: cell-based
[2] = Inhibition of lipid A-induced TLR4 activation in HEK-Blue-4 cells assessed as inhibition of alkaline phosphatase activity at 10 uM by spectrophotometry; type: cell-based
[3] = biological target: Intestinal-type alkaline phosphatase (Bos taurus) (UniProt P19111); assay: Inhibition of calf recombinant intestinal alkaline phosphatase at 10 uM
[4] = biological target: Intestinal-type alkaline phosphatase (Homo sapiens) (UniProt P09923); assay: Inhibition of intestinal alkaline phosphatase in lipid A-stimulated HEK-Blue-4 cells at 10 uM
[5] = Cytotoxicity against HEK-Blue-4 cells assessed as diminution of cell viability by Cell-Titre Blue assay; type: cell-based; details: human
Mus musculus [6] = assay: Antisepsis activity in LPS-induced C57BL/6J mouse lethal endotoxin shock model assessed as survival after 4 days at 10 mg/kg, ip administered 30 before LPS challenge; type: functional; details: for survival at 10 mg/kg: 96 h, route intraperitoneal
Homo sapiens = species on record: Homo sapiens; assay: Inhibition of TNF-alpha-induced alkaline phosphatase activity in HEK-Blue-4 cells at 10 uM by spectrophotometry; type: functional, cell-based
Mus musculus [7] = assay: Antisepsis activity in LPS-induced ip dosed C57BL/6J mouse lethal endotoxin shock model assessed as survival after 4 days administered 30 before LPS challenge; type: functional
[8] = Cytotoxicity against HEK-Blue-4 cells assessed as effect on cell viability by Cell-Titre Blue assay; type: cell-based; details: human
Mus musculus [9] = assay: Antisepsis activity in LPS-induced C57BL/6J mouse lethal endotoxin shock model assessed as survival after 4 days at 3 mg/kg, ip administered 30 before LPS challenge; type: functional; details: 96 h, route intraperitoneal

Sequence of Intestinal-type alkaline phosphatase (Bos taurus) (P19111 20-506 limits assumed): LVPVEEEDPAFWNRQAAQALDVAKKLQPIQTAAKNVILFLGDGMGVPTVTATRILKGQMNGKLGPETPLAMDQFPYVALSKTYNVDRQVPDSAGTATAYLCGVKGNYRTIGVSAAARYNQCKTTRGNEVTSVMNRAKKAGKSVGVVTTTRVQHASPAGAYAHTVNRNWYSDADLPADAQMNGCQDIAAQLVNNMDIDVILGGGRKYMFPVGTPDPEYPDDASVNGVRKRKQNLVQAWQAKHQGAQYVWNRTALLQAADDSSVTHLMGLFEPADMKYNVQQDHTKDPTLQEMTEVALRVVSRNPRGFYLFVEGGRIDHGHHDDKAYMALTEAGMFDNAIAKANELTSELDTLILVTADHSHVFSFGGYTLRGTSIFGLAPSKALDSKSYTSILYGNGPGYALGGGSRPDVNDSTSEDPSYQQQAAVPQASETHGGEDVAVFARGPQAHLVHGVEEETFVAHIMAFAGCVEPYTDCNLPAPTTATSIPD
Sequence of Intestinal-type alkaline phosphatase (Homo sapiens) (P09923 20-503 limits assumed): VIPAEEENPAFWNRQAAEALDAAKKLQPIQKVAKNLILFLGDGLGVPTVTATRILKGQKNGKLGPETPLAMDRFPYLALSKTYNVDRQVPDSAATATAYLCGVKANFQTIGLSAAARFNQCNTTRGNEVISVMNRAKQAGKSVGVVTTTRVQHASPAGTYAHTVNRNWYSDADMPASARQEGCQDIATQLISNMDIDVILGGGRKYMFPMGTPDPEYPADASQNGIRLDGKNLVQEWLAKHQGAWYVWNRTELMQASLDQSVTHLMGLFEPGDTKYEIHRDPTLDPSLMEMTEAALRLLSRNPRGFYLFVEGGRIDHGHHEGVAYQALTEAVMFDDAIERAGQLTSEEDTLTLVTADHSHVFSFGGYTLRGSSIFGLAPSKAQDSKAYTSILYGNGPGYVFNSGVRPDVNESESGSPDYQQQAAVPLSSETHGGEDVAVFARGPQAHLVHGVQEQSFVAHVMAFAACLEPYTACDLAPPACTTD

## CCCCCCCCCCCCCCOc1ccc(C[N+](C)(C)C2CCCC2)cc1OCCCCCCCCCCCCCC.[I-]
[1]
  IC50: 1.68 µM
[2]
  Activity: Dose-dependent effect
[3]
  Activity: inactive
[4]
  Activity: inactive
[5]
  Activity: 13%
Mus musculus [6]
  survival at 10 mg/kg: 67%
Homo sapiens
  Activity: inactive

## CCCCCCCCCCCCCCO[C@H]1[C@@H](OC)O[C@H](COC2CCCC2)[C@@H](O)[C@@H]1OCCCCCCCCCCCCCC
[1]
  IC50: > 10 µM

## CCOC(=O)C1=CCCC[C@H]1S(=O)(=O)Nc1ccc(F)cc1Cl [RESATORVID]
Mus musculus [7]; 96 h
  ED50: 0.3 mg/kg

## CCCCCCCCCCCCCCO[C@H]1[C@@H](OC)O[C@H](C[N+](C)(C)C2CCCC2)[C@@H](O)[C@@H]1OCCCCCCCCCCCCCC.[I-]
[1]
  IC50: 5.01 µM
[2]
  Activity: Dose-dependent effect
[3]
  Activity: inactive
[4]
  Activity: inactive
[8]
  Activity: Non-toxic
Mus musculus [6]
  survival at 10 mg/kg: 25%
Homo sapiens
  Activity: inactive

## CCCCCCCCCCCCCCO[C@H]1[C@@H](OC)O[C@H](CNOC)[C@@H](O)[C@@H]1OCCCCCCCCCCCCCC
[1]
  IC50: > 10 µM

## CCCCCCCCCCCCCCO[C@H]1[C@@H](OC)O[C@H](CN)[C@@H](O)[C@@H]1OCCCCCCCCCCCCCC
[1]
  IC50: 5.49 µM
[2]
  Activity: Dose-dependent effect
[3]
  Activity: inactive
[4]
  Activity: inactive
[8]
  Activity: Non-toxic
Mus musculus [6]
  Activity: Active
Mus musculus [9]
  survival at 3 mg/kg: 100%
Homo sapiens
  Activity: inactive

## CCCCCCCCCCCCCCO[C@H]1[C@@H](OC)O[C@H](CNC2CCCC2)[C@@H](O)[C@@H]1OCCCCCCCCCCCCCC
[1]
  IC50: > 10 µM
[2]
  inhibition: 23%
Mus musculus [7]
  Activity: inactive

## CCCCCCCCCCCCCCO[C@H]1[C@@H](OC)O[C@H](CNC(=O)C2CCCN2)[C@@H](O)[C@@H]1OCCCCCCCCCCCCCC (some centres not stated)
[1]
  IC50: 5.87 µM
[2]
  Activity: Dose-dependent effect
[3]
  Activity: inactive
[8]
  Activity: Non-toxic
